Here are results for 15 molecules from patent US4298739A, “Novel carbostyril derivatives” (priority 1977, dated 1981).

A short description of data set [1]: Acute toxicity test, oral administration to mice. Type of data set: in vivo. Conditions: mouse, in vivo, Male mice. The procedure:
The test compounds were administered orally to the mice and LD50 (mg/kg) of the compounds was determined.

Data set [2] concerns rabbit platelet. In words: Collagen-induced aggregation in rabbit platelets (AG-II Aggregometer). Type of data set: cell-based. Further details: inhibition: dose or concentration left out as unconfirmed. Conditions: Oryctolagus cuniculus, Platelet, read-out: Inhibition effect on collagen induced aggregation in rabbit platelet; for inhibition at 100 µM (stock): 10^-4 mole; for inhibition at 10 µM (stock): 10^-5 mole; for inhibition at 1 µM (stock): 10^-6 mole. The procedure:
(§1) The platelet aggregation inhibitory effect is measured by using AG-II Aggregometer (manufactured by Bryston Manufacturing Co.). The blood sample used for the test is a 1/9 (by volume) mixture of sodium citrate and whole blood collected from rabbit. Said sample is subjected to 10-minute centrifugal separation at 1,000 r.p.m. to obtain a platelet rich plasma (PRP). The thus obtained PRP is separated, and the remaining blood sample is further subjected to 15-minute centrifugal separation at 3,000 r.p.m. to obtain a platelet poor plasma (PPP).
(§2) The number of platelets in the PRP is counted by the Brecher-Clonkite Method, and the PRP is diluted with the PPP to prepare a PRP sample with platelet concentration of 300,000/mm^3 for the adenosine diphosphate (ADP)-induced aggregation test. There is also prepared a PRP sample with platelet concentration of 450,000/mm^3 for the collagen-induced aggregation test.
(§3) 0.6 ml of said PRP sample is added into 0.01 ml of a solution of a test compound of a predetermined concentration and the mixture is placed in a 37° C. thermostat for one minute. Then 0.07 ml of an ADP or collagen solution is added to the mixture. Transmittance of this mixture is determined and the change of transmittance is recorded by using the aggregometer at stirrer speed of 1,100 r.p.m. In this test, Auren Beronal buffer (pH 7.35) is used for the preparation of the ADP or collagen solution. ADP is adjusted to a concentration of 7.5×10^-5 M, and the collagen solution is prepared by triturating 100 mg of collagen with 5 ml of said buffer and the supernatant is used as collagen inducer. Adenosine and acetylsalicylic acid are used as controls for the ADP-induced aggregation test and the collagen-induced aggregation test, respectively. The platelet aggregation inhibitory effect is measured in terms of percent inhibition with respect to the aggregation rate of the controls. The aggregation rate is calculated from the following formula:
(§4) Aggregation rate=(c-a)/(b-a)×100
(§5) b: transmittance of PRP containing a test compound and an aggregation inducer
(§6) The inhibitory effect of the tested compounds on collagen-induced aggregation in rabbit platelets is shown in Table 1, and such effect on ADP-induced aggregation is shown in Table 2. The compounds tested are as follows.

For data set [3], the system named is rabbit platelet. In words: ADP-induced aggregation in rabbit platelets (AG-II Aggregometer). Type of data set: cell-based. Set-up: inhibition: dose or concentration left out as unconfirmed. Conditions: Oryctolagus cuniculus, Platelet, read-out: Inhibition effect on ADP-induced aggregation in rabbit platelet; for inhibition at 100 µM (stock): 10^-4 mole; for inhibition at 10 µM (stock): 10^-5 mole; for inhibition at 1 µM (stock): 10^-6 mole. The procedure: as §1, §2, §3, §4, §5, §6

In turn, `CN(C(=O)CCCOc1ccc(O)c2c1CCC(=O)N2)C1CCCCC1` [compound 10, 8-Hydroxy-5-[3-(N-Methyl-N-cyclohexylaminocarbonyl)propoxy]-3,4-dihydrocarbostyril] registered an LD50 in data set [1] of over 1000 mg/kg. The inhibition at 100 µM (stock) in the data set with rabbit platelet [2] was determined as 91.8%; in the data set on rabbit platelet [3], 53.9%. For the same molecule, the figures for the inhibition at 10 µM (stock) in the data set on rabbit platelet [2] and in the data set on rabbit platelet [3] were 29.3% and 18.4%, respectively.
Molecule `CCCNC(=O)CC(C)COc1ccc2c(c1)CCC(=O)N2` (stereo not drawn) [compound 45, 6-[3-(N-Propylaminocarbonyl)-2-methylpropoxy]-3,4-dihydrocarbostyril, reference compound] yielded an LD50 in data set [1] of 500 to 800 mg/kg. Further, in the data set on rabbit platelet [2], the inhibition at 100 µM (stock) came to 12%, the inhibition at 10 µM (stock) stood at 5% and the inhibition at 1 µM (stock) was 0%. Moreover, in the data set with rabbit platelet [3], the inhibition at 100 µM (stock) was 32%, the inhibition at 10 µM (stock) was found to be 17% and the inhibition at 1 µM (stock) is 9%.
The molecule `CCN(C(=O)CCCOc1c(Cl)cc(Cl)c2c1CCC(=O)N2)c1ccccc1` [compound 12, 6,8-Dichloro-5-[3-(N-ethylanilinocarbonyl)propoxy]-3,4-dihydrocarbostyril] gave an LD50 in data set [1] of over 1000 mg/kg. In addition, in the data set on rabbit platelet [2], the inhibition at 100 µM (stock) was found to be 82.6%, the inhibition at 10 µM (stock) amounted to 65.2% and the inhibition at 1 µM (stock) stood at 33.8%. Also, in the data set on rabbit platelet [3], the inhibition at 100 µM (stock) worked out at 71.7%, the inhibition at 10 µM (stock) stood at 33.8% and the inhibition at 1 µM (stock) is 12.7%.
Regarding `O=C(CCCOc1ccc2[nH]c(=O)ccc2c1)N(c1ccccc1)C1CCCCC1` [compound 17, 6-[3-(N-Cyclohexylanilinocarbonyl)propoxy]carbostyril], the LD50 in data set [1] was over 1000 mg/kg. In the data set with rabbit platelet [2], the inhibition at 100 µM (stock) was determined as 91.5%, the inhibition at 10 µM (stock) worked out at 53.8% and the inhibition at 1 µM (stock) came out at 16.7%. In addition, in the data set on rabbit platelet [3], the inhibition at 100 µM (stock) was determined as 82.5%, the inhibition at 10 µM (stock) was 38.7% and the inhibition at 1 µM (stock) is 12.3%.
In data set [1], `CN(C(=O)CC(O)COc1ccc2[nH]c(=O)ccc2c1)C1CCCCC1` (stereo not drawn) [compound 8, 6-[2-Hydroxy-3-(N-methyl-N-cyclohexylaminocarbonyl)propoxy]carbostyril] gave a median lethal dose (LD50) of over 1000 mg/kg. In addition, in the data set with rabbit platelet [2], the inhibition at 100 µM (stock) turned out to be 85.5%, the inhibition at 10 µM (stock) was 86.8% and the inhibition at 1 µM (stock) came to 2.9%. In the data set with rabbit platelet [3], the inhibition at 100 µM (stock) is 91.7% and the inhibition at 10 µM (stock) was 41.1%.
Consider `CN(C(=O)CCCOc1ccc2[nH]c(=O)ccc2c1Cl)C1CCCCC1` [compound 6, 5-Chloro-6-[3-(N-methyl-N-cyclohexylaminocarbonyl)propoxy]carbostyril], for which, in data set [1], the LD50 was over 1000 mg/kg. For the same molecule, in the data set on rabbit platelet [2], the inhibition at 100 µM (stock) came to 100%, the inhibition at 10 µM (stock) amounted to 53.3% and the inhibition at 1 µM (stock) turned out to be 12.3%. Also, in the data set with rabbit platelet [3], the inhibition at 100 µM (stock) is 87.2% and the inhibition at 10 µM (stock) was found to be 5.4%.
`O=C1CCc2cc(OCCCC(=O)OC3CCCCC3)ccc2N1` [compound 40, 6-(3-Cyclohexyloxycarbonylpropoxy)-3,4-dihydrocarbostyril, reference compound] yielded an LD50 in data set [1] of 500 to 800 mg/kg. Besides, in the data set with rabbit platelet [2], the inhibition at 100 µM (stock) turned out to be 12%, the inhibition at 10 µM (stock) came to 8% and the inhibition at 1 µM (stock) stood at 0%. For the same molecule, in the data set on rabbit platelet [3], the inhibition at 100 µM (stock) worked out at 28%, the inhibition at 10 µM (stock) came out at 16% and the inhibition at 1 µM (stock) worked out at 7%.
For the molecule `COc1ccc(CCN(C)C(=O)CCCOc2ccc3[nH]c(=O)ccc3c2)cc1OC` [compound 4, 6-{3-[N-Methyl-N-(2-3',4'-dimethoxyphenylethyl)aminocarbonyl]propoxy}carbostyril], in data set [1], the LD50 was over 1000 mg/kg. Moreover, in the data set with rabbit platelet [2], the inhibition at 100 µM (stock) is 82.9%, the inhibition at 10 µM (stock) came out at 46.5% and the inhibition at 1 µM (stock) is 19.2%. Moreover, in the data set on rabbit platelet [3], the inhibition at 100 µM (stock) worked out at 70.4%, the inhibition at 10 µM (stock) stood at 16.1% and the inhibition at 1 µM (stock) worked out at 6.9%.
Consider `CC(C)NC(=O)CCOc1cccc2c1CCC(=O)N2` [compound 41, 5-(N-Isopropylaminocarbonylethoxy)-3,4-dihydrocarbostyril, reference compound], for which the LD50 in data set [1] was 500 to 800 mg/kg. Also, in the data set on rabbit platelet [2], the inhibition at 100 µM (stock) is 17% and the inhibition at 1 µM (stock) stood at 0%. Also, in the data set on rabbit platelet [3], the inhibition at 100 µM (stock) was 18%, the inhibition at 10 µM (stock) was 13% and the inhibition at 1 µM (stock) stood at 7%.
`CCCCN(C(=O)CCCCOc1ccc2c(c1)CCC(=O)N2)C1CCCCC1` [compound 22, 6-[4-(N-Butyl-N-cyclohexylaminocarbonyl)buthoxy]-3,4-dihydrocarbostyril]: in data set [1], the LD50 was over 1000 mg/kg. Moreover, in the data set on rabbit platelet [2], the inhibition at 100 µM (stock) turned out to be 85.6%, the inhibition at 10 µM (stock) amounted to 78.5% and the inhibition at 1 µM (stock) was 28.7%. Moreover, in the data set on rabbit platelet [3], the inhibition at 100 µM (stock) was found to be 71.5%, the inhibition at 10 µM (stock) was determined as 32.7% and the inhibition at 1 µM (stock) stood at 10.5%.
`CC(C)(Oc1ccc2c(c1)CCC(=O)N2)C(=O)O` [compound 38, 6-(1-Methyl-1-carboxyethoxy)-3,4-dihydrocarbostyril, reference compound] registered an LD50 in data set [1] of 800 to 1000 mg/kg. In the data set with rabbit platelet [2], the inhibition at 100 µM (stock) stood at 5%, the inhibition at 10 µM (stock) was 3% and the inhibition at 1 µM (stock) stood at 0%. Also, in the data set on rabbit platelet [3], the inhibition at 100 µM (stock) came to 10%, the inhibition at 10 µM (stock) amounted to 5% and the inhibition at 1 µM (stock) was determined as 3%.
In data set [1], `COc1ccc(CCN(Cc2ccccc2)C(=O)CCCOc2ccc3c(c2)CCC(=O)N3)cc1OC` [compound 11, 6-{3-[N-Benzyl-N-(2-3',4'-dimethoxyphenylethyl)aminocarbonyl]propoxy}-3,4-dihydrocarbostyril] yielded an LD50 of over 1000 mg/kg. For the same molecule, in the data set on rabbit platelet [2], the inhibition at 100 µM (stock) came out at 88.1%, the inhibition at 10 µM (stock) was determined as 75.8% and the inhibition at 1 µM (stock) worked out at 28.1%. Also, in the data set with rabbit platelet [3], the inhibition at 100 µM (stock) was 87.5%, the inhibition at 10 µM (stock) is 12.5% and the inhibition at 1 µM (stock) was 16.9%.
The molecule `O=C(CCCOc1ccc2[nH]c(=O)ccc2c1)N(Cc1ccccc1)C1CCCCC1` [compound 5, 6-{3-(N-Cyclohexyl-N-benzylaminocarbonyl)propoxy]carbostyril] showed an LD50 in data set [1] of over 1000 mg/kg. Moreover, the inhibition at 10 µM (stock) in the data set with rabbit platelet [2] came out at 91.8%; in the data set with rabbit platelet [3], 90.7%. Moreover, the inhibition at 1 µM (stock) with rabbit platelet [2] worked out at 88.4%; with rabbit platelet [3], 61.2%. In addition, the inhibition at 0.1 µM (stock) in the data set on rabbit platelet [2] (10^-7 mole) is 30.6%; in the data set with rabbit platelet [3] (10^-7 mole), 18.9%.
In data set [1], `CN(C)C(=O)COc1cccc2c1CCC(=O)N2` [compound 43, 5-(N,N-dimethylaminocarbonylmethoxy)-3,4-dihydrocarbostyril, reference compound] returned an LD50 of 500 to 700 mg/kg. Also, in the data set on rabbit platelet [2], the inhibition at 100 µM (stock) turned out to be 27%, the inhibition at 10 µM (stock) stood at 13% and the inhibition at 1 µM (stock) came out at 0%. For the same molecule, in the data set with rabbit platelet [3], the inhibition at 100 µM (stock) came to 22%, the inhibition at 10 µM (stock) amounted to 17% and the inhibition at 1 µM (stock) turned out to be 8%.
`O=C1CCc2cc(OCCCC(=O)N(C3CCCCC3)C3CCCCC3Cl)ccc2N1` (stereo not drawn) [compound 7, 6-{3-[N-Cyclohexyl-N-(2-chlorocyclohexyl)aminocarbonyl]propoxy}-3,4-dihydrocarbostyril] gave an LD50 in data set [1] of over 1000 mg/kg. Further, the inhibition with rabbit platelet [2] came out at 89.9%; with rabbit platelet [3], 82.9%.
